From patent US12157741B2, “Macrocyclic inhibitors of DYRK1A” (DANA-FARBER CANCER INSTITUTE, INC., priority 2018, dated 2024)
Read-outs that look alike come from different tables or passages of the source.

What was measured:
Format in all cases: binding
[1] = target: various enzymes (Homo sapiens, UniProt Q9H2K8); details: compound 1 uM
Description: (§1) Ambit profiling was conducted in accordance with the manufacturer's instructions.

[2] = target: various enzymes (Homo sapiens, UniProt Q9P0L2); details: compound 1 uM
Description: as §1

[3] = target: various enzymes (Homo sapiens, UniProt Q9Y2H9); details: compound 1 uM
Description: as §1

[4] = target: various enzymes (Homo sapiens, UniProt Q00532); details: compound 1 uM
Chain of various enzymes (Homo sapiens, UniProt Q00532) (Q00532 whole entry): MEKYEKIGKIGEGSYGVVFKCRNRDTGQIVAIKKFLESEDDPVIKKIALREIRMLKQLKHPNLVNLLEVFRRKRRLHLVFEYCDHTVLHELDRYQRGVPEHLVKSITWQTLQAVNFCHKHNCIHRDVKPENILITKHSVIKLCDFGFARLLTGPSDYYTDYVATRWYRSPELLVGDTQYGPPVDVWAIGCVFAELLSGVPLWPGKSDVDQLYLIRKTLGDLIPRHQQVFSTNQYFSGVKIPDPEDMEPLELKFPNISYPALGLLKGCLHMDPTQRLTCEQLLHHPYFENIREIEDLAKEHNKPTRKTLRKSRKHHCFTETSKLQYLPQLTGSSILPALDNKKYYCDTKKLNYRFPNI
Description: as §1

[5] = target: various enzymes (Homo sapiens, UniProt Q13554); details: compound 1 uM
Description: as §1

[6] = target: various enzymes (Homo sapiens, UniProt P21802); details: compound 1 uM
Description: as §1

[7] = target: various enzymes (Homo sapiens, UniProt Q8IW41); details: compound 1 uM
Description: as §1

[8] = target: various enzymes (Homo sapiens, UniProt Q9Y5S2); details: compound 1 uM
Description: as §1

[9] = target: various enzymes (Plasmodium falciparum, UniProt P61075)
Description: as §1

[10] = target: various enzymes (Homo sapiens, UniProt Q6DT37); details: compound 1 uM
Description: as §1

[11] = target: various enzymes (Homo sapiens, UniProt Q9BQI3); details: compound 1 uM
Chain of various enzymes (Homo sapiens, UniProt Q9BQI3) (Q9BQI3 whole entry): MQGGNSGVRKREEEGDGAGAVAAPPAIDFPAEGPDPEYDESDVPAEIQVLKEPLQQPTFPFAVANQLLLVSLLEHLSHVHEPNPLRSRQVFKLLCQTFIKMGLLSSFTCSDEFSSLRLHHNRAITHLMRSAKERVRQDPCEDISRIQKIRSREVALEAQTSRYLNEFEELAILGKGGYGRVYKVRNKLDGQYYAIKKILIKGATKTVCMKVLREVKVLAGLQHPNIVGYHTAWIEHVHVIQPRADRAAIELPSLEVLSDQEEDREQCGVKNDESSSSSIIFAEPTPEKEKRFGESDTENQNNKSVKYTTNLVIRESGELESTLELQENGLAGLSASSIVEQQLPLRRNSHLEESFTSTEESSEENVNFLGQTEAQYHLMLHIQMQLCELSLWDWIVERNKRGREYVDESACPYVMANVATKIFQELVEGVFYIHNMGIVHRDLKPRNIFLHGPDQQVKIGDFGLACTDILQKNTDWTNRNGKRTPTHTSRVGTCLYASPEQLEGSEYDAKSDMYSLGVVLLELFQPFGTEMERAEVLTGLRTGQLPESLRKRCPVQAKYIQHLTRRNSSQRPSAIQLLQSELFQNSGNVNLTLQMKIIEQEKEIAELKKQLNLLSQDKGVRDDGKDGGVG
Description: as §1

[12] = target: various enzymes (Homo sapiens, UniProt P22607); details: compound 1 uM
Description: as §1

[13] = target: T1, various enzymes (Homo sapiens, UniProt P36888); details: compound 1 uM
T1 sequence (P36888 27-993): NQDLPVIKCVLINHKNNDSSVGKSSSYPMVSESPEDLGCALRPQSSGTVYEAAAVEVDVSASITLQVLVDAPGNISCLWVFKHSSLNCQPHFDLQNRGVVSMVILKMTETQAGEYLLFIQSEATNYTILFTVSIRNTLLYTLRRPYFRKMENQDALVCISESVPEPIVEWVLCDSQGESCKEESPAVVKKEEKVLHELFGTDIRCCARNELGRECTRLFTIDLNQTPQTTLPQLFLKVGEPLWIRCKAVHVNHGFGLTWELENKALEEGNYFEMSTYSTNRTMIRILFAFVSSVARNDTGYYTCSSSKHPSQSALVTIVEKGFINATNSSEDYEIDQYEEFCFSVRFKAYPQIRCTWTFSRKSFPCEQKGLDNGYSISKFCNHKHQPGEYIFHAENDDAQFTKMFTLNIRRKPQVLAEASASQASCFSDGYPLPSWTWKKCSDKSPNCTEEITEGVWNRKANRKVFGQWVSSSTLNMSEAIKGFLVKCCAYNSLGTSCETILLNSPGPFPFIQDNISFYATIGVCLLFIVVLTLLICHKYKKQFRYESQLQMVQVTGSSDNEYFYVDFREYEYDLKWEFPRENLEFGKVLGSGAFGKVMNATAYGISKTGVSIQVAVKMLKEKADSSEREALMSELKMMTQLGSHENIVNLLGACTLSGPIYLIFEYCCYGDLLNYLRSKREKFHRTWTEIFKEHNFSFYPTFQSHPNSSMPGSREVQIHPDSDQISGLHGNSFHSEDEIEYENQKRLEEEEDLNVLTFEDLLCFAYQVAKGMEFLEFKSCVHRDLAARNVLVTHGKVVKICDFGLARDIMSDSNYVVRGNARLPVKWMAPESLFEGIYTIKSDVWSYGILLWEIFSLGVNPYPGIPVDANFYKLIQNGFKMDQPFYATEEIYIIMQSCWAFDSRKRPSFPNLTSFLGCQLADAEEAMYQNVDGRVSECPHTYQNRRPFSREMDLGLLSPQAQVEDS
Description: as §1

[14] = target: various enzymes (Homo sapiens, UniProt P00519, Q252H); details: compound 1 uM
Description: as §1

[15] = target: various enzymes (Homo sapiens, UniProt Q86UE8); details: compound 1 uM
Chain of various enzymes (Homo sapiens, UniProt Q86UE8) (Q86UE8 whole entry): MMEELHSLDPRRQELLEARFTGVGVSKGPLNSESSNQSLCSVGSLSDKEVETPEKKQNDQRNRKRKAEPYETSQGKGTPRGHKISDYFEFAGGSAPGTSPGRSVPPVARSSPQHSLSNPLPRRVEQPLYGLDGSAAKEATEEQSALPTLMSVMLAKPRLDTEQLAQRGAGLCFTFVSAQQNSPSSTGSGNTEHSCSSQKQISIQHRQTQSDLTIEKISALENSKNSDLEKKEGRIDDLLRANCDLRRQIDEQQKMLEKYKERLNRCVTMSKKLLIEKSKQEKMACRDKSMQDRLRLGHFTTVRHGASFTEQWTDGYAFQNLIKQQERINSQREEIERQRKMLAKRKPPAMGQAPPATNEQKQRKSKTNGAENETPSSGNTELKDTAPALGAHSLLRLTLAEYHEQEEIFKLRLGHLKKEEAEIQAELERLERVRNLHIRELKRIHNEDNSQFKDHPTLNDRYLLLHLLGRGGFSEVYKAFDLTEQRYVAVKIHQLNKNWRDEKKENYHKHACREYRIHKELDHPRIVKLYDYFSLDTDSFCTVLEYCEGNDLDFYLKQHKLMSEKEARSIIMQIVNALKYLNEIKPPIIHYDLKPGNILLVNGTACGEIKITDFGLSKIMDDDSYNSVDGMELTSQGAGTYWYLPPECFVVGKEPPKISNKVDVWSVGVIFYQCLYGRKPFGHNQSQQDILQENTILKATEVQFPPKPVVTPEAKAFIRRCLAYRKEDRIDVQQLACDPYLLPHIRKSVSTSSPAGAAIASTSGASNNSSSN
Description: as §1

[16] = target: various enzymes (Homo sapiens, UniProt Q9Y463); details: compound 1 uM
Description: as §1

[17] = target: various enzymes (Homo sapiens, UniProt Q15569); details: compound 1 uM
Chain of various enzymes (Homo sapiens, UniProt Q15569) (Q15569 whole entry): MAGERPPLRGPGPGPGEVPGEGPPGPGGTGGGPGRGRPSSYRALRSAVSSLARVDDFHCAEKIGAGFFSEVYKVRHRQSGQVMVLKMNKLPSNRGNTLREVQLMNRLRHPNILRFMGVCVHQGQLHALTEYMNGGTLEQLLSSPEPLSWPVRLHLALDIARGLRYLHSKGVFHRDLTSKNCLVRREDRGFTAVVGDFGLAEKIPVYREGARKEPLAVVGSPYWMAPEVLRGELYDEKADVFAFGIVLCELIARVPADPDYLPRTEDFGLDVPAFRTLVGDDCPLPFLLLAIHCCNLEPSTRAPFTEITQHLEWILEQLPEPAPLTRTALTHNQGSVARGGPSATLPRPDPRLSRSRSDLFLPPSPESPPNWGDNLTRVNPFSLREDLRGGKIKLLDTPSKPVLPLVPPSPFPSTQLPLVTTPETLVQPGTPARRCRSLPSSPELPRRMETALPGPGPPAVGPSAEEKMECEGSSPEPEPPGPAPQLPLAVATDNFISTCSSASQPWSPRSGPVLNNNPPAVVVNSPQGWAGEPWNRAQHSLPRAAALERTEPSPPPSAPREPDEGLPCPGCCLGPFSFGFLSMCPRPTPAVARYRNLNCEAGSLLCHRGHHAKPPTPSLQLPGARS
Description: as §1

[18] = target: various enzymes (Homo sapiens, UniProt P35916); details: compound 1 uM
Chain of various enzymes (Homo sapiens, UniProt P35916) (P35916 25-1363): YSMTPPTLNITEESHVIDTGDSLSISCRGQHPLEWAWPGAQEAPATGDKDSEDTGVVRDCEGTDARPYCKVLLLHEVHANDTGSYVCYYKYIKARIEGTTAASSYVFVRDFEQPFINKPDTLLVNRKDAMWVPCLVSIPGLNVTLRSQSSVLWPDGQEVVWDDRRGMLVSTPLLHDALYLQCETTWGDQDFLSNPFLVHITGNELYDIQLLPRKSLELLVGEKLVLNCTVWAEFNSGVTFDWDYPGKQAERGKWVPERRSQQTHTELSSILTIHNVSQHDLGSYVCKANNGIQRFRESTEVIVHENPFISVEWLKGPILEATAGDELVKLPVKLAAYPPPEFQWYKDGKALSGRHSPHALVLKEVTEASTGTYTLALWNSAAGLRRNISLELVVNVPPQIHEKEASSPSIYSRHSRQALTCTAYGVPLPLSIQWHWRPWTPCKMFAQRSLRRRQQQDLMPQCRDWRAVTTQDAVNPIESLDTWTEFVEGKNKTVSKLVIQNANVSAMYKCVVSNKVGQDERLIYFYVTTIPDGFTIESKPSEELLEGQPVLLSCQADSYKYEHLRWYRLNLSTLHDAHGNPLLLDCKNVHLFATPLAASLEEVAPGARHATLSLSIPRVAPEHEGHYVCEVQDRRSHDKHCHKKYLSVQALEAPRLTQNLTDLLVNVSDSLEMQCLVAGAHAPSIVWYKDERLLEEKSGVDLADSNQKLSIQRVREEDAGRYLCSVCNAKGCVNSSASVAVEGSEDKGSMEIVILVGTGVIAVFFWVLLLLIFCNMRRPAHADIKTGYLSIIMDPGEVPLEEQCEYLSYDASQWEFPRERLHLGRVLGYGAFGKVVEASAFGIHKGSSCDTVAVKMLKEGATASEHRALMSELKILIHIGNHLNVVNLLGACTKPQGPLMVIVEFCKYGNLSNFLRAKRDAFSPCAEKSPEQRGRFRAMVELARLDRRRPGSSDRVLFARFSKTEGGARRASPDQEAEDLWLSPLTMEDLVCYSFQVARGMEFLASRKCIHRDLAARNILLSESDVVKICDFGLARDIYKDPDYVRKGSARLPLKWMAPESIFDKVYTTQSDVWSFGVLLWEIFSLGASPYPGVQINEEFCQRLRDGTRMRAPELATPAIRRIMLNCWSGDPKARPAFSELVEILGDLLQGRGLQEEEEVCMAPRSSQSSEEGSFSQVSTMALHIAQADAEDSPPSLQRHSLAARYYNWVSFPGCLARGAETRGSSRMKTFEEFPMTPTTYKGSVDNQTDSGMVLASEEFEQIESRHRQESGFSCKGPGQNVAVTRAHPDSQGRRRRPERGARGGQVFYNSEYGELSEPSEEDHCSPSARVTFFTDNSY
Description: as §1

[19] = target: T2, various enzymes (Homo sapiens, UniProt Q9NWZ3); details: compound 1 uM
T2 sequence (Q9NWZ3 1-460): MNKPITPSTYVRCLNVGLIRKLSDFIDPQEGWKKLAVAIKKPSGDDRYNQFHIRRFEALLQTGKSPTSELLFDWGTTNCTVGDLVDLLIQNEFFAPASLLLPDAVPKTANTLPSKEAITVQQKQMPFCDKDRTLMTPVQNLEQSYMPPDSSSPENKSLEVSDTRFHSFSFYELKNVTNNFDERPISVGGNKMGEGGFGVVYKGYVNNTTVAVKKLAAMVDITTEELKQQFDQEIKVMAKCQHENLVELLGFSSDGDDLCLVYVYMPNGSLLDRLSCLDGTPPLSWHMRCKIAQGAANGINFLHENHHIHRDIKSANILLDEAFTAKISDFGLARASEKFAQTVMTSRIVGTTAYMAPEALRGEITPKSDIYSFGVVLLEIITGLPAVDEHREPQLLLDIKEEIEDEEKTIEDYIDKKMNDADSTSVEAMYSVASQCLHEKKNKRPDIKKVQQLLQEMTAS
Description: as §1

[20] = target: various enzymes (Homo sapiens, UniProt P08581, M1250T)
Description: as §1

[21] = target: various enzymes (Homo sapiens, UniProt P08069); details: compound 1 uM
Description: as §1

[22] = target: various enzymes (Homo sapiens, UniProt P49137); details: compound 1 uM
Description: as §1

[23] = target: various enzymes (Homo sapiens, UniProt P42336, I800L)
Chain of various enzymes (Homo sapiens, UniProt P42336, I800L) (P42336 whole entry I800L): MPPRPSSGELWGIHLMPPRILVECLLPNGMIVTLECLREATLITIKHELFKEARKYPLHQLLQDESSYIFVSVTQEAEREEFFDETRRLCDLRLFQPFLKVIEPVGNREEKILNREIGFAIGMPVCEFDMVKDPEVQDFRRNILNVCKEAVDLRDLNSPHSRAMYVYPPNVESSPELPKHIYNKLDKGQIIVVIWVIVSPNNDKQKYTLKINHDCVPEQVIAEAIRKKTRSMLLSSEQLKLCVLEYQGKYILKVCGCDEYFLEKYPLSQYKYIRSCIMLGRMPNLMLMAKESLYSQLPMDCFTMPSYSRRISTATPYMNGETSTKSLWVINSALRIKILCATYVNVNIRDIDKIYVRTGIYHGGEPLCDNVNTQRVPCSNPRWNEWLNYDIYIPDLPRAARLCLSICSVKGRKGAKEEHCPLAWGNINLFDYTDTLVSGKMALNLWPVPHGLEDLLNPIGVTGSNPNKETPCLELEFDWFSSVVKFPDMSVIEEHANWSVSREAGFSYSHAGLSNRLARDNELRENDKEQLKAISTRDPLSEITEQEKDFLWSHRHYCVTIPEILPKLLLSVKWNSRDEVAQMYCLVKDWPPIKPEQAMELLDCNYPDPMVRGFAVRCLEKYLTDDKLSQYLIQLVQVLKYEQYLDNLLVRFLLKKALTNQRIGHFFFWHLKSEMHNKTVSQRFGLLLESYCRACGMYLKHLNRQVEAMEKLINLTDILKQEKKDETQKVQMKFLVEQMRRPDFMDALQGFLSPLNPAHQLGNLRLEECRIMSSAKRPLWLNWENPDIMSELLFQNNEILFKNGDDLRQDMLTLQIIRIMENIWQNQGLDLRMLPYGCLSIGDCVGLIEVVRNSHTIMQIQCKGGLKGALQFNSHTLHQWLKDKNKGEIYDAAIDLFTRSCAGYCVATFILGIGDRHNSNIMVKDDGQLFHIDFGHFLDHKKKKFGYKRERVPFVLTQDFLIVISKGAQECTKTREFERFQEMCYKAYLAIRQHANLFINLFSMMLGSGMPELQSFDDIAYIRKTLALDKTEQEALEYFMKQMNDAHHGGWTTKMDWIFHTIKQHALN
Description: as §1

[24] = target: various enzymes (Homo sapiens, UniProt O94921); details: compound 1 uM
Description: as §1

SMILES | Ambit profiling: TAOK3 [1] | Ambit profiling: MARK1 [2] | Ambit profiling: MAST1 [3] | Ambit profiling: CDKL1 [4] | Ambit profiling: CAMK2B [5] | Ambit profiling: FGFR2 [6] | Ambit profiling: MAPKAPK5 [7] | Ambit profiling: MRCKB [8] | Ambit profiling: DMPK2 [10] | Ambit profiling: EIF2AK1 [11] | Ambit profiling: FGFR3 [12] | Ambit profiling: FLT3 [13] | Ambit profiling: FLT3-autoinhibited [13] | Ambit profiling: ABL1(Q252H)-nonphosphorylated [14] | Ambit profiling: ABL1(Q252H)-phosphorylated [14] | Ambit profiling: TLK2 [15] | Ambit profiling: TESK1 [17] | Ambit profiling: FLT4 [18] | Ambit profiling: IRAK4 [19] | Ambit profiling: IGF1R [21] | also measured
CC(C)N1Cc2nn(C)cc2-c2cnc3[nH]cc(c3c2)-c2cn(nc2C(F)(F)F)CCCC1=O [Compound 45, (Z)-5-isopropyl-31-methyl-13-(trifluoromethyl)-11H,21H,31H-5-aza-2(3,5)-pyrrolo[2,3-b]pyridina-1(4,1),3(4,3)-dipyrazolacyclononaphan-6-one] | 22 | 33 | 22 | 39 | 65 | 9.5 | 100 | 86 | 53 | 100 | 5.4 | 0 | 21 | 3.2 | 20 | 86 | 99 | 0.1 | 39 | 86 | Ambit profiling: PFPK5(P. falciparum) ([9]; compound 1 uM): 82; Ambit profiling: DYRK18 [16]: 0.55; Ambit profiling: MET(M1250T) ([20]; compound 1 uM): 4.3; Ambit profiling: MAPKAPK2 [22]: 100; Ambit profiling: PIK3CA(I800L) ([23]; compound 1 uM): 87; Ambit profiling: PFTK1 [24]: 14
COc1c2c(nn1C)CN(C(C)C)C(=O)CCCn1cc(c(C(F)(F)F)n1)-c1c[nH]c3ncc-2cc13 [Compound 50, (Z)-5-isopropyl-35-methoxy-31-methyl-13-(trifluoromethyl)-11H,21H,31H-5-aza-2(3,5)-pyrrolo[2,3-b]pyridina-1(4,1),3(4,3)-dipyrazolacyclononaphan-6-one] | 63 | 39 | 40 | 51 | 46 | 11 | 100 | 99 | 47 | 66 | 7.6 | 1.1 | 6.4 | 2.4 | 1.6 | 91 | 69 | 0.1 | 20 | 69 | Ambit profiling: PFPK5(P. falciparum) [9]: 79; Ambit profiling: DYRK1B [16]: 5.2; Ambit profiling: MET(M1250T) [20]: 4.2; Ambit profiling: MAPKAPK2 [22]: 100; Ambit profiling: PIK3CA(I800L) [23]: 86; Ambit profiling: PFTK1 [24]: 60
